Our source for the IC50 values is US20260258064A1 (SIRONAX LTD., priority 2023, published 2026).

Bounds are passed on as bounds.

The target in this assay is T1, SARM1 (50-724) (Homo sapiens, UniProt Q6SZW1).
T1 construct: Purified SARM1 (50-724) with a final concentration of 2 nM was pre-incubated with a test compound
T1 sequence (Q6SZW1 50-724): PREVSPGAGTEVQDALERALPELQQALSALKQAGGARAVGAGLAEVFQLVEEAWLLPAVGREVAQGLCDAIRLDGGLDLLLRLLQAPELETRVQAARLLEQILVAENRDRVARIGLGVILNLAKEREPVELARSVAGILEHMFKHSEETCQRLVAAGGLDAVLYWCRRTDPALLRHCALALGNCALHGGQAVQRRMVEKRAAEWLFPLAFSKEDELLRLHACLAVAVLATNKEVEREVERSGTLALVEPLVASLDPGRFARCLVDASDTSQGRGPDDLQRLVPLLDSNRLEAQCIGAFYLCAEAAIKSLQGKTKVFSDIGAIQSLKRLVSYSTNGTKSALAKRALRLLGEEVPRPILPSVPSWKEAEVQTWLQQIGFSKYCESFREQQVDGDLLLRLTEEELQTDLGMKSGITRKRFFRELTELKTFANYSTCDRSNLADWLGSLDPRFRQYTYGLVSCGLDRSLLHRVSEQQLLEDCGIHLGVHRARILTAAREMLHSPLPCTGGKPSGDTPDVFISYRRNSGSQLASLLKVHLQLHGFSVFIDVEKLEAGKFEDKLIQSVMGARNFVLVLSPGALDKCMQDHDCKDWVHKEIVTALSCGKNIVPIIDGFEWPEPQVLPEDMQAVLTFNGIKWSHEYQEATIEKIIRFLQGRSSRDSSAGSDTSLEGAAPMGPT
As to the kind of experiment: SARM1 (50-724) enzymatic assay (LC-MS/MS). To be noted: Purified SARM1 (50-724) 2 nM, NMN as activator, NAD+ as substrate, 1 h at room temperature, read-out: IC50 (SARM1 inhibitory activity). Type of assay: biochemical. As to the method: An enzymatic assay was performed in a 384-well plate using Dulbecco's phosphate-buffered saline (PBS) as the reaction buffer. Purified SARM1 (50-724) with a final concentration of 2 nM was pre-incubated with a test compound at […] final assay concentration for 15 min at room temperature. The reaction was initiated by adding a mixture of […] nicotinamide mononucleotide (NMN) as activator and […] NAD^+ as substrate. After 1 h of incubation at room temperature, the reaction was terminated with 10 times volume of 70% acetonitrile, and then centrifuged at 3800 rpm for 10 min. The samples were analyzed using LC-MS/MS after diluted to a proper concentration by 10 mM ammonium acetate (pH 9.75).
In Table 2, activity is provided as follows: A: IC50≤100 nM; B: 100 nM<IC50≤500 nM; C: 500 nM<IC50≤1000 nM; D: IC50>1000 nM.

Usually IC50 stands for the midpoint of a concentration-inhibition curve. `OC1CCN(c2cc(F)c3[nH]c(-c4nncn4-c4cnccc4C(F)(F)F)nc3c2)C1` (centres unmarked) [Compound 447, 1-(4-fluoro-2-(4-(4-(trifluoromethyl)pyridin-3-yl)-4H-1,2,4-triazol-3-yl)-1H-benzo[d]imidazol-6-yl)pyrrolidin-3-ol]: the IC50 fell in the range of 500 to 1000 nM. As to `Cc1ccc2[nH]c(-c3nncn3C3CCCC3)nc2c1` [Example 1, 2-(4-cyclopentyl-4H-1,2,4-triazol-3-yl)-5-methyl-1H-benzo[d]imidazole], the IC50 is > 1000 nM. In the case of `Fc1ccc(-n2cnnc2-c2nc3cc(C(F)(F)F)ccc3[nH]2)c(OC(F)(F)F)c1` [Compound 189, 2-(4-(4-fluoro-2-(trifluoromethoxy)phenyl)-4H-1,2,4-triazol-3-yl)-5-(trifluoromethyl)-1H-benzo[d]imidazole] it was ≤ 100 nM; in that of `Cc1cc(-c2ccc3[nH]c(-c4nncn4-c4cccc(Cl)c4Cl)nc3c2)sn1` [Example 80, 5-(2-(4-(2,3-dichlorophenyl)-4H-1,2,4-triazol-3-yl)-1H-benzo[d]imidazol-5-yl)-3-methylisothiazole], 100 to 500 nM; in that of `Cc1ccc2[nH]c(-c3c(CO)ccn3C3CCCC3)nc2c1` [Compound 17, (1-cyclopentyl-2-(5-methyl-1H-benzo[d]imidazol-2-yl)-1H-pyrrol-3-yl)methanol], > 1000 nM. Next, `Cc1ccc2[nH]c(-c3ccc(C#N)n3C3CCCC3)nc2c1` [Compound 19, 1-cyclopentyl-5-(5-methyl-1H-1,3-benzodiazol-2-yl)pyrrole-2-carbonitrile]: 100 to 500 nM; `COC(C)(c1ccc2[nH]c(-c3nncn3-c3ccc(F)c(F)c3Cl)nc2c1)C1COC1` (centres unmarked) [Compound 150, 2-(4-(2-chloro-3,4-difluorophenyl)-4H-1,2,4-triazol-3-yl)-5-(1-methoxy-1-(oxetan-3-yl)ethyl)-1H-benzo[d]imidazole]: 100 to 500 nM. Next, `CS(=O)(=O)CCc1nnc(-c2nc3cc(C(F)(F)F)ccc3[nH]2)n1-c1cccc(Cl)c1Cl` [Compound 138, 2-(4-(2,3-dichlorophenyl)-5-(2-(methylsulfonyl)ethyl)-4H-1,2,4-triazol-3-yl)-5-(trifluoromethyl)-1H-benzo[d]imidazole]: ≤ 100 nM; `Fc1cc(C2(F)CC2)cc2nc(-c3nnccc3-c3nnccc3C(F)(F)F)[nH]c12` [Compound 466, 7-fluoro-5-(1-fluorocyclopropyl)-2-(4-(trifluoromethyl)-[3,4′-bipyridazin]-3′-yl)-1H-benzo[d]imidazole]: ≤ 100 nM. Regarding `NC(=O)c1nnc(-c2nc3cc(C(F)(F)F)ccc3[nH]2)n1-c1cccc(Cl)c1Cl` [Compound 77], the IC50 is 100 to 500 nM.

As for `Cc1ccc2[nH]c(-c3[nH]nnc3C3CCCC3)nc2c1` [Compound 33, 2-(4-cyclopentyl-1H-1,2,3-triazol-5-yl)-5-methyl-1H-benzo[d]imidazole], the IC50 is > 1000 nM. In the case of `[2H]c1nnc(-c2nc3c(F)c(C4([2H])CC4)cc(F)c3[nH]2)n1-c1cnccc1C(F)(F)F` [Compound 394, 5-(cyclopropyl-1-d)-4,7-difluoro-2-(4-(4-(trifluoromethyl)pyridin-3-yl)-4H-1,2,4-triazol-3-yl-5-d)-1H-benzo[d]imidazole] it was ≤ 100 nM; in that of `CN1CCC(n2cnnc2-c2nc3cc(C(F)(F)F)ccc3[nH]2)C1` (centres unmarked) [Compound 202, 2-(4-(1-methylpyrrolidin-3-yl)-4H-1,2,4-triazol-3-yl)-5-(trifluoromethyl)-1H-benzo[d]imidazole], > 1000 nM; in that of `FC(F)(F)c1ccc2[nH]c(-c3nncn3-c3cncnc3C(F)(F)F)nc2c1` [Compound 415, 5-(trifluoromethyl)-2-(4-(4-(trifluoromethyl)pyrimidin-5-yl)-4H-1,2,4-triazol-3-yl)-1H-benzo[d]imidazole], ≤ 100 nM.

For the molecule `FC(F)(F)c1ccc2[nH]c(N3CCC3c3ccccc3)nc2c1` (centres unmarked) [Compound 344, 2-(2-phenylazetidin-1-yl)-5-(trifluoromethyl)-1H-benzo[d]imidazole], the 50% inhibitory concentration (IC50) fell in the range of 500 to 1000 nM. Next, `O=c1cc(-n2cnnc2-c2nc3cc(C(F)(F)F)ccc3[nH]2)c(Cl)c[nH]1` [Compound 163, 5-Chloro-4-(3-(5-(trifluoromethyl)-1H-benzo[d]imidazol-2-yl)-4H-1,2,4-triazol-4-yl)pyridin-2(1H)-one]: ≤ 100 nM; `CN(C)c1ccncc1-n1cnnc1-c1nc2cc(C(F)(F)F)ccc2[nH]1` [Compound 245, N,N-dimethyl-3-(3-(5-(trifluoromethyl)-1H-benzo[d]imidazol-2-yl)-4H-1,2,4-triazol-4-yl)pyridin-4-amine]: ≤ 100 nM; `CC(c1cc(F)c2[nH]c(-c3nncn3-c3cnccc3C(F)(F)F)nc2c1)n1cccn1` (centres unmarked) [Compound 454, 5-(1-(1H-pyrazol-1-yl)ethyl)-7-fluoro-2-(4-(4-(trifluoromethyl)pyridin-3-yl)-4H-1,2,4-triazol-3-yl)-1H-benzo[d]imidazole]: ≤ 100 nM. On to `Fc1cc(Oc2nccs2)cc2nc(-c3nncn3-c3cnccc3C(F)(F)F)[nH]c12` [Compound 446, 2-((7-fluoro-2-(4-(4-(trifluoromethyl)pyridin-3-yl)-4H-1,2,4-triazol-3-yl)-1H-benzo[d]imidazol-5-yl)oxy)thiazole], for which the 50% inhibitory concentration (IC50) lay in the range of 100 to 500 nM.

Regarding `Fc1cc(C(F)F)cc2nc(-c3nncn3-c3cnccc3C(F)(F)F)[nH]c12` [Compound 467, 6-(difluoromethyl)-4-fluoro-2-(4-(4-(trifluoromethyl)pyridin-3-yl)-4H-1,2,4-triazol-3-yl)-1H-benzo[d]imidazole], the 50% inhibitory concentration (IC50) is ≤ 100 nM. In the case of `CC(c1cc(F)c2[nH]c(-c3nncn3-c3cnccc3C(F)(F)F)nc2c1)c1ncco1` (centres unmarked) [Compound 435, 2-(1-(7-fluoro-2-(4-(4-(trifluoromethyl)pyridin-3-yl)-4H-1,2,4-triazol-3-yl)-1H-benzo[d]imidazol-5-yl)ethyl)oxazole] it was ≤ 100 nM; in that of `CS(=O)(=O)Cc1nnc(-c2nc3cc(C(F)(F)F)cc(F)c3[nH]2)n1-c1cccc(F)c1Cl` (single isomer, unassigned) [Compound 183, 2-(4-(2-Chloro-3-fluorophenyl)-5-((methylsulfonyl)methyl)-4H-1,2,4-triazol-3-yl)-7-fluoro-5-(trifluoromethyl)-1H-benzo[d]imidazole], 100 to 500 nM. In the case of `COc1ccc(Cl)c(-n2cnnc2-c2nc3cc(C(F)(F)F)ccc3[nH]2)n1` [Example 114] it was ≤ 100 nM. In the case of `CC(c1cccnc1)c1cc(F)c2[nH]c(-c3nncn3-c3cnccc3C(F)(F)F)nc2c1` (centres unmarked) [Compound 444, 7-fluoro-5-(1-(pyridin-3-yl)ethyl)-2-(4-(4-(trifluoromethyl)pyridin-3-yl)-4H-1,2,4-triazol-3-yl)-1H-benzo[d]imidazole] it was ≤ 100 nM; in that of `FC(F)(F)c1cc2nc(-c3nncn3-c3cccc(Cl)c3Cl)[nH]c2cn1` [Compound 142, 2-(4-(2,3-dichlorophenyl)-4H-1,2,4-triazol-3-yl)-6-(trifluoromethyl)-3H-imidazo[4,5-c]pyridine], > 1000 nM; in that of `CC(c1cc(F)c2[nH]c(-c3nncn3-c3cnccc3C(F)(F)F)nc2c1)c1nccs1` (racemic) [Compound 412, 2-(1-(7-fluoro-2-(4-(4-(trifluoromethyl)pyridin-3-yl)-4H-1,2,4-triazol-3-yl)-1H-benzo[d]imidazol-5-yl)ethyl)thiazole], ≤ 100 nM.
